Measurements reported in US7544814B2, “[3.2.0] Heterocyclic compounds and methods of using the same” (Nereus Pharmaceuticals, Inc., priority 2004, dated 2009).
Where two headings read alike, the source gives them in different places.

Experiments:
[1] = biological target: T1, chymotrypsin-like activity of 20S proteasomes in RPMI 8226 cells (Homo sapiens, UniProt P28074); test: Chymotrypsin-like activity of 20S proteasomes in lysates of treated RPMI 8226 cells; assay type: cell-based; conditions: RPMI-8226, read-out: % inhibition of the chymotrypsin-like activity of 20S proteasomes in RPMI 8226 cell lysates
T1 construct: added to 2.5×10^5/ml RMPI 8226 cells; endogenous in cells; host or cells: RPMI 8226 (ATCC CCL-155)
T1 sequence (P28074 60-263): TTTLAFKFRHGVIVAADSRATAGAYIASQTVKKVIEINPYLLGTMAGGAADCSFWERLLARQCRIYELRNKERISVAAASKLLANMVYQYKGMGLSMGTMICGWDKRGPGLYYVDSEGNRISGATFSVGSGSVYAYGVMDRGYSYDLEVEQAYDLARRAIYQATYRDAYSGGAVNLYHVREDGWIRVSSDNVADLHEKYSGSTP
Experimental: RPMI 8226 (ATCC, CCL-155), the human multiple myeloma cell line, was cultured in RPMI 1640 medium supplemented with 2 mM L-glutamine, 100 units/ml penicillin, 100 μg/ml streptomycin, 1 mM sodium pyruvate and 10% heat inactivated fetal bovine serum at 37° C., 5% CO2 and 95% humidified air. […] DMSO was used as the vehicle control at a final concentration of 0.1%. Following 1 hr incubation of RMPI 8226 cells with the compounds, the cells were pelleted by centrifugation at 2,000 rpm for 10 sec at room temperature and washed 3× with ice-cold 1× Dulbecco's Phosphate-Buffered Saline (DPBS, Mediatech, Herndon, Va.). DPBS washed cells were lysed on ice for 15 min in lysis buffer (20 mM HEPES, 0.5 mM EDTA, 0.05% Triton X-100, pH 7.3) supplemented with protease inhibitor cocktail (Roche Diagnostics, Indianapolis, Ind.). Cell debris was pelleted by centrifugation at 14,000 rpm for 10 min, 4° C. and supernatants (=cell lysates) were transferred to a new tube. Protein concentration was determined by the BCA protein assay kit (Pierce Biotechnology, Rockford, Ill.). […] The released coumarin (AMC) was measured fluorometrically by using λex=390 nm and λem=460 nm. The assay was performed in a microtiter plate (Corning 3904) and followed kinetically with measurements every five minutes for 2 hr. The total amount of protein used for each assay was 20 μg. The final concentration of Suc-LLVY-AMC and DMSO was 20 μM and 0.2%, respectively.

HL-60 = test: Cell growth inhibition (resazurin), HL-60; assay type: cell-based, human; conditions: from EC50 values
HL-60/MX2 = test: Cell growth inhibition (resazurin), multidrug resistant HL-60/MX2; conditions: from EC50 values
Experimental: Concentrations ranging from 6.32 μM to 2 nM were tested for II-2 and II-4.
HL-60/MX2 is a multidrug resistant tumor cell line derived from the human promyelocytic leukemia cell line, HL-60 and expresses reduced topoisomerase II activity. […] Mitoxantrone, the topoisomerase II targeting agent was included as a control.

MDA-MB-231 = test: Cell growth inhibition (resazurin), MDA-MB-231; conditions: from EC50 values
MES-SA/Dx5 = test: Cell growth inhibition (resazurin), multidrug resistant MES-SA/Dx5; assay type: cell-based, human; conditions: from EC50 values
RPMI 8226 = test: cells
Experimental: RPMI 8226 (CCL-155), HT-29 (HTB-38), and B16-F10 (CRL-6475) cells were purchased from ATCC. RPMI 8226 cells were maintained in RPMI 1640 media supplemented with 10% (v/v) FBS, 2 mM L-glutamine, 1 mM sodium pyruvate and Penicillin/Streptomycin at 100 IU/ml and 100 μg/ml, respectively. HT-29 cells were maintained in McCoys 5A supplemented with 10% (v/v) FBS, 2 mM L-glutamine, 1 mM sodium pyruvate, 1% (v/v) non-essential amino acids, 10 mM HEPES and Penicillin/Streptomycin at 100 IU/ml and 100 μg/ml, respectively. B16-F10 cells were maintained in DMEM supplemented with 10% (v/v) FBS, 2 mM L-glutamine, 10 mM HEPES and Penicillin/Streptomycin at 100 IU/ml and 100 μg/ml, respectively.
RPMI 8226 cells were seeded at 2×10^4 cells/well in 90 μl RPMI media containing 10% (v/v) FBS or 1% (v/v) FBS into 96 well black-walled, clear-bottom tissue culture plates. […] Formulae II-16, II-17 and Formula II-18 were serially diluted in media containing 1% or 10% FBS and added in triplicate to the test wells. […] The final concentration of Formula II-18 ranged from 2 μM to 630 pM.

B16-F10 = test: Cell growth inhibition (resazurin), B16-F10; conditions: from EC50 values
MES-SA = test: Cell growth inhibition (resazurin), MES-SA; assay type: cell-based, human; conditions: from EC50 values
PC-3 = test: Cell growth inhibition (resazurin), PC-3; assay type: cell-based, human; conditions: from EC50 values

C[C@H]1C(=O)N[C@@]2(C(O)[C@@H]3C=CCCC3)C(=O)O[C@@]12C (single isomer, unassigned) [Formula II-20]
inhibition at 0.001 µM [1]: 3 ± 10%
inhibition at 0.005 µM [1]: 31 ± 9%
inhibition at 0.01 µM [1]: 37 ± 3%
inhibition at 0.05 µM [1]: 64 ± 3%
inhibition at 0.1 µM [1]: 66 ± 3%
inhibition at 0.5 µM [1]: 71 ± 2%
inhibition at 1 µM [1]: 73 ± 2%
inhibition at 10 µM [1]: 87 ± 4%

C[C@@]12OC(=O)[C@]1([C@@H](O)[C@@H]1C=CCCC1)NC(=O)[C@@H]2CCBr [Formula II-18]
cytotoxic activity against HL-60, in words (HL-60): retained cytotoxic activity
cytotoxic activity against HL-60/MX2, in words (HL-60/MX2): retained cytotoxic activity
cytotoxicity against MDA-MB-231, in words (MDA-MB-231): cytotoxic
cytotoxic activity against MES-SA/Dx5, in words (MES-SA/Dx5): cytotoxic activity
cytotoxicity against RPMI 8226 in media containing 1% or 10% FBS, in words (RPMI 8226; 1% or 10% FBS): cytotoxic
EC50 (RPMI 8226; Homo sapiens, RPMI-8226, read-out: 1% FBS, EC50, RPMI 8226, media containing 1% FBS, single experiments): 15 nM
EC50 (RPMI 8226; Homo sapiens, RPMI-8226, read-out: 10% FBS, EC50, RPMI 8226, media containing 10% FBS, single experiments): 20 nM
EC50 (RPMI 8226; Homo sapiens, RPMI-8226, read-out: Mean 1% FBS, EC50, RPMI 8226, media containing 1% FBS, mean): 14 nM
EC50 (RPMI 8226; Homo sapiens, RPMI-8226, read-out: Mean 10% FBS, EC50, RPMI 8226, media containing 10% FBS, mean): 20 nM
change in the mean EC50, 10% FBS relative to 1% FBS (RPMI 8226; RPMI 8226): less than three fold decrease
EC50 (RPMI 8226; read-out: 1% FBS, EC50, RPMI 8226, media containing 1% FBS, single experiments): 13 nM
cytotoxicity against B16-F10, in words (B16-F10): cytotoxic
cytotoxic activity against MES-SA, in words (MES-SA): cytotoxic activity
cytotoxicity against PC-3, in words (PC-3): cytotoxic
